Laboratory results: patent publication US9556165B2 (priority 2012, dated 2017)
In brackets after ≈: the same amount, converted by molar mass.

Experiments:
Assay in all cases: MIC determination, broth microdilution (CLSI)
Format in all cases: cell-based
[1] = system: E. coli ATCC25922; conditions: for MIC: Escherichia coli, ATCC25922, strain 1
[2] = system: K. pneumoniae 60; conditions: for MIC: Klebsiella pneumoniae, 60, strain 2
[3] = system: E. cloacae 34654; conditions: for MIC: Enterobacter cloacae, 34654, strain 3
[4] = system: C. freundii K21/3034; conditions: for MIC: Citrobacter freundii, K21/3034, strain 4
[5] = system: M. morganii 126/3048; conditions: for MIC: Morganella morganii, 126/3048, strain 5
[6] = system: P. aeruginosa PAO1; conditions: for MIC: Pseudomonas aeruginosa, PAO1, strain 6
[7] = system: P. aeruginosa 2297 (AmpC wt); conditions: for MIC: Pseudomonas aeruginosa, strain 7
[8] = system: P. aeruginosa 2297-con (AmpC derepressed); conditions: for MIC: Pseudomonas aeruginosa, read-out: strain 8 MIC, strain 8
[9] = system: A. baumannii ATCC15308; conditions: for MIC: Acinetobacter baumannii, ATCC15308, strain 9
[10] = system: S. maltophilia ICB7569; conditions: Stenotrophomonas maltophilia, ICB7569, strain 10
[11] = system: S. pneumoniae 113; conditions: Streptococcus pneumoniae, 113, strain 14; read-out: strain 14 MIC
[12] = system: E. coli J62; conditions: for MIC: Escherichia coli, J62, strain 17, read-out: strain 17 MIC
[13] = system: E. coli J62-TEM-3; conditions: for MIC: Escherichia coli, J62TEM3, read-out: strain 18 MIC, strain 18
[14] = system: strain 19
[15] = system: strain 20
[16] = system: strain 21
[17] = system: M. catarrhalis ICB489; conditions: for MIC: Moraxella catarrhalis, ICB489, strain 12
[18] = system: S. aureus 133; conditions: Staphylococcus aureus, 133, strain 11; read-out: strain 11 MIC
[19] = system: H. influenzae ATCC 49247; conditions: Haemophilus influenzae, ATCC49247, strain 13; read-out: strain 13 MIC
[20] = system: B. fragilis 6688; conditions: Bacteroides fragilis, 6688, strain 15; read-out: strain 15 MIC

Structure (SMILES)	MIC [1] [µg/mL]	MIC [2] [µg/mL]	MIC [3] [µg/mL]	MIC [4] [µg/mL]	MIC [5] [µg/mL]	MIC [6] [µg/mL]	MIC [7] [µg/mL]	MIC [8] [µg/mL]	MIC [9] [µg/mL]	MIC [10] [µg/mL]	MIC [11] [µg/mL]	MIC [12] [µg/mL]	MIC [13] [µg/mL]	MIC [14] [µg/mL]	MIC [15] [µg/mL]	MIC [16] [µg/mL]	MIC [18] [µg/mL]	MIC [17] [µg/mL]	MIC [19] [µg/mL]	MIC [20] [µg/mL]	also measured
CC1(C)[C@H](NC(=O)/C(=N\OCCOc2ccc(C(=N)N)c(O)c2)c2csc(N)n2)C(=O)N1OS(=O)(=O)O [Example 1, (2Z)-2-(2-Amino-1,3-thiazol-4-yl)-2-{[2-(4-carbamimidoyl-3-hydroxyphenoxy)ethoxy]imino}-N-[(3S)-2,2-dimethyl-4-oxo-1-(sulfooxy)azetidin-3-yl]ethanamide]	0.25 (≈ 0.448 µM)	0.25 (≈ 0.448 µM)	0.5 (≈ 0.897 µM)	0.5 (≈ 0.897 µM)	0.125 (≈ 0.224 µM)	4 (≈ 7.17 µM)	8 (≈ 14.3 µM)	4 (≈ 7.17 µM)	8 (≈ 14.3 µM)	8 (≈ 14.3 µM)	16 (≈ 28.7 µM)	0.25 (≈ 0.448 µM)	16 (≈ 28.7 µM)	0.25 (≈ 0.448 µM)	0.25 (≈ 0.448 µM)	0.25 (≈ 0.448 µM)	–	–	–	–	–
CC1(C)[C@H](NC(=O)/C(=N\OCCOc2ccc(C(=N)N)nn2)c2csc(N)n2)C(=O)N1OS(=O)(=O)O [Example 29, (2Z)-2-(2-Amino-1,3-thiazol-4-yl)-2-({2-[(6-carbamimidoylpyridazin-3-yl)oxy]-ethoxy}imino)-N-[(3S)-2,2-dimethyl-4-oxo-1-(sulfooxy)azetidin-3-yl]ethanamide]	0.25 (≈ 0.46 µM)	0.25 (≈ 0.46 µM)	0.5 (≈ 0.92 µM)	0.25 (≈ 0.46 µM)	0.25 (≈ 0.46 µM)	8 (≈ 14.7 µM)	16 (≈ 29.4 µM)	8 (≈ 14.7 µM)	2 (≈ 3.68 µM)	8 (≈ 14.7 µM)	4 (≈ 7.36 µM)	0.5 (≈ 0.92 µM)	8 (≈ 14.7 µM)	0.5 (≈ 0.92 µM)	0.5 (≈ 0.92 µM)	0.5 (≈ 0.92 µM)	–	–	–	–	–
C[C@H]1[C@H](NC(=O)/C(=N\OCCSc2ccc(C(=N)N)cc2)c2csc(N)n2)C(=O)N1S(=O)(=O)O [Example 6, (2S,3S)-3-{[(2Z)-2-(2-Amino-1,3-thiazol-4-yl)-2-({2-[(4-carbamimidoylphenyl)sulfanyl]ethoxy}imino)acetyl]amino}-2-methyl-4-oxoazetidine-1-sulfonic acid]	0.125 (≈ 0.237 µM)	0.25 (≈ 0.474 µM)	0.125 (≈ 0.237 µM)	≤ 0.125	≤ 0.125	4 (≈ 7.58 µM)	8 (≈ 15.2 µM)	16 (≈ 30.3 µM)	1 (≈ 1.9 µM)	32 (≈ 60.7 µM)	4 (≈ 7.58 µM)	0.25 (≈ 0.474 µM)	16 (≈ 30.3 µM)	0.25 (≈ 0.474 µM)	0.25 (≈ 0.474 µM)	0.25 (≈ 0.474 µM)	–	–	–	–	–
C[C@H]1[C@H](NC(=O)/C(=N\OC(COc2ccc(C(=N)N)cc2)C(=O)O)c2csc(N)n2)C(=O)N1S(=O)(=O)O (mixture of isomers) [Example 26B, (2S and 2R)-2-({[(1Z)-1-(2-Amino-1,3-thiazol-4-yl)-2-{[(2S,3S)-2-methyl-4-oxo-1-sulfoazetidin-3-yl]amino}-2-oxoethylidene]amino}oxy)-3-(4-carbamidinoyl-phenoxy)propanoic acid]	–	–	–	–	–	–	–	–	–	–	–	–	–	–	–	–	–	–	–	–	strain 1 MIC ([1]; strain 1): 2 µg/mL; strain 2 MIC ([2]; strain 2): 0.5 µg/mL; strain 3 MIC ([3]; strain 3): 1 µg/mL; strain 4 MIC ([4]; strain 4): 2 µg/mL; strain 5 MIC ([5]; strain 5): 0.5 µg/mL; strain 6 MIC ([6]; strain 6): 4 µg/mL; strain 7 MIC [7]: 8 µg/mL; strain 8 MIC ([8]; strain 8): 32 µg/mL; strain 9 MIC ([9]; strain 9): 16 µg/mL; strain 12 MIC ([17]; strain 12): 2 µg/mL; strain 17 MIC ([12]; strain 17): 2 µg/mL; strain 18 MIC ([13]; strain 18): 32 µg/mL; strain 19 MIC [14]: 1 µg/mL; strain 20 MIC [15]: 2 µg/mL; strain 21 MIC [16]: 2 µg/mL
C[C@H]1[C@H](NC(=O)/C(=N\OCCOc2ccc(C(=N)N)cc2F)c2csc(N)n2)C(=O)N1S(=O)(=O)O [Example 19, (2S,3S)-3-{[(2Z)-2-(2-Amino-1,3-thiazol-4-yl)-2-{[2-(4-carbamimidoyl-2-fluorophenoxy)ethoxy]imino}acetyl]amino}-2-methyl-4-oxoazetidine-1-sulfonic acid]	0.5 (≈ 0.944 µM)	0.125 (≈ 0.236 µM)	0.5 (≈ 0.944 µM)	0.5 (≈ 0.944 µM)	0.25 (≈ 0.472 µM)	8 (≈ 15.1 µM)	16 (≈ 30.2 µM)	–	4 (≈ 7.55 µM)	–	16 (≈ 30.2 µM)	0.5 (≈ 0.944 µM)	32 (≈ 60.4 µM)	0.5 (≈ 0.944 µM)	1 (≈ 1.89 µM)	1 (≈ 1.89 µM)	–	–	–	–	–
C[C@H]1[C@H](NC(=O)/C(=N\OCc2cc(C(=N)N)cs2)c2csc(N)n2)C(=O)N1S(=O)(=O)O [Example 32, (2S,3S)-3-{[(2Z)-2-(2-Amino-1,3-thiazol-4-yl)-2-(2-[(4-carbamimidoylthiophen-2-yl)methoxy]imino)acetyl]amino}-2-methyl-4-oxoazetidine-1-sulfonic acid]	1 (≈ 2.05 µM)	–	0.5 (≈ 1.03 µM)	0.5 (≈ 1.03 µM)	0.5 (≈ 1.03 µM)	16 (≈ 32.8 µM)	32 (≈ 65.6 µM)	–	2 (≈ 4.1 µM)	–	8 (≈ 16.4 µM)	2 (≈ 4.1 µM)	32 (≈ 65.6 µM)	1 (≈ 2.05 µM)	2 (≈ 4.1 µM)	1 (≈ 2.05 µM)	≤ 0.063	0.75 (≈ 1.54 µM)	0.5 (≈ 1.03 µM)	3 (≈ 6.15 µM)	–
C[C@H]1[C@H](NC(=O)/C(=N\OCCOc2ccc(C(=N)NO)cc2)c2csc(N)n2)C(=O)N1S(=O)(=O)O [Example 21, (2S,3S)-3-{[(2Z)-2-(2-Amino-1,3-thiazol-4-yl)-2-({2-[4-(N-hydroxycarbamimidoyl)phenoxy]ethoxy}imino)acetyl]amino}-2-methyl-4-oxoazetidine-1-sulfonic acid]	1 (≈ 1.9 µM)	0.25 (≈ 0.474 µM)	1 (≈ 1.9 µM)	0.25 (≈ 0.474 µM)	0.5 (≈ 0.948 µM)	16 (≈ 30.3 µM)	16 (≈ 30.3 µM)	–	8 (≈ 15.2 µM)	–	32 (≈ 60.7 µM)	2 (≈ 3.79 µM)	16 (≈ 30.3 µM)	0.5 (≈ 0.948 µM)	1 (≈ 1.9 µM)	1 (≈ 1.9 µM)	0.5 (≈ 0.948 µM)	0.25 (≈ 0.474 µM)	1 (≈ 1.9 µM)	32 (≈ 60.7 µM)	–
C[C@H]1[C@H](NC(=O)/C(=N\OCCCOc2ccc(C(=N)N)cc2)c2csc(N)n2)C(=O)N1S(=O)(=O)O [Example 37, (2S,3S)-3-{[(2Z)-2-(2-Amino-1,3-thiazol-4-yl)-2-[{3-(4-carbamimidoylphenoxy)propoxy]imino}acetyl]amino}-2-methyl-4-oxoazetidine-1-sulfonic acid]	2 (≈ 3.81 µM)	2 (≈ 3.81 µM)	2 (≈ 3.81 µM)	2 (≈ 3.81 µM)	1 (≈ 1.9 µM)	8 (≈ 15.2 µM)	8 (≈ 15.2 µM)	–	4 (≈ 7.61 µM)	–	4 (≈ 7.61 µM)	4 (≈ 7.61 µM)	–	2 (≈ 3.81 µM)	2 (≈ 3.81 µM)	2 (≈ 3.81 µM)	1 (≈ 1.9 µM)	0.5 (≈ 0.951 µM)	1 (≈ 1.9 µM)	16 (≈ 30.4 µM)	–
